Entries after “also recorded” stand apart in the source; their conditions may differ.
Experiments:
[1] = system: Tfn-A594 uptake in U2OS cells; test: Automated quantitative CME assay: Tfn-A594 uptake; format: cell-based; settings: for IC50: Homo sapiens, read-out: CME IC50; for IC50 / CME IC50 (μM): Tfn-A594 uptake, U2OS, 30-min preincubation, serum-free
Experimental: To determine whether the Dyngo compounds are widespread cell‐permeable and endocytosis inhibitors, CME of fluorescent Tfn was compared in an automated quantitative endocytosis assay in U2OS cells. The assay consisted of over 1200 cells under serum‐free conditions; after preincubation with each analog for 30 min the uptake of fluorescent Tfn was measured. We refer to this endocytosis as non‐neuronal CME to distinguish it from CME of synaptic vesicles in presynaptic terminals of neurons, which is referred to as synaptic vesicle endocytosis (SVE). In these cells, Tfn uptake is presumed to be mediated by dynamin II, because this is the only isoform of dynamin that they express, as determined by western blot (Figure S6). […] There was no apparent correlation between in vitro and in‐cell activity, with potent dynamin‐active compounds like 1a and 14a having no effect on non‐neuronal CME (Table 1). This might be explained by low membrane permeability of these analogs, their cellular metabolism or rapid cellular efflux mechanisms.
Quantitative analysis of the inhibition of Alexa 594‐Tfn endocytosis in U2OS cells was performed on large numbers of serum‐starved cells as described 10. Synaptic vesicle recycling in cultured CGNs was monitored using FM1‐43 as described 57 (see Supporting Information). Dynamin‐independent endocytosis was measured using internalization of CT in NIH3T3 cells (using Tfn as a control) as described previously 58 with minor changes (see Supporting Information). The average number of cells for each data point was ˜1200. IC50 values were calculated using GraphPad Prism 5 and data were expressed as mean ± 95% confidence interval (CI) for three wells and ˜1200 cells.

[2] = system: dynamin; parameters: method as in PMID 19459681; settings: read-out: dynamin inhibitor potency; cited from earlier work
[3] = target: native sheep brain dynamin I (Ovis aries, UniProt A0ACI6PDC7); test: PS liposome-stimulated (helical) dynamin I GTPase assay (Malachite Green); format: biochemical; settings: IC50 with versus without Tween-80
Sequence of native sheep brain dynamin I (A0ACI6PDC7 entry or part of it): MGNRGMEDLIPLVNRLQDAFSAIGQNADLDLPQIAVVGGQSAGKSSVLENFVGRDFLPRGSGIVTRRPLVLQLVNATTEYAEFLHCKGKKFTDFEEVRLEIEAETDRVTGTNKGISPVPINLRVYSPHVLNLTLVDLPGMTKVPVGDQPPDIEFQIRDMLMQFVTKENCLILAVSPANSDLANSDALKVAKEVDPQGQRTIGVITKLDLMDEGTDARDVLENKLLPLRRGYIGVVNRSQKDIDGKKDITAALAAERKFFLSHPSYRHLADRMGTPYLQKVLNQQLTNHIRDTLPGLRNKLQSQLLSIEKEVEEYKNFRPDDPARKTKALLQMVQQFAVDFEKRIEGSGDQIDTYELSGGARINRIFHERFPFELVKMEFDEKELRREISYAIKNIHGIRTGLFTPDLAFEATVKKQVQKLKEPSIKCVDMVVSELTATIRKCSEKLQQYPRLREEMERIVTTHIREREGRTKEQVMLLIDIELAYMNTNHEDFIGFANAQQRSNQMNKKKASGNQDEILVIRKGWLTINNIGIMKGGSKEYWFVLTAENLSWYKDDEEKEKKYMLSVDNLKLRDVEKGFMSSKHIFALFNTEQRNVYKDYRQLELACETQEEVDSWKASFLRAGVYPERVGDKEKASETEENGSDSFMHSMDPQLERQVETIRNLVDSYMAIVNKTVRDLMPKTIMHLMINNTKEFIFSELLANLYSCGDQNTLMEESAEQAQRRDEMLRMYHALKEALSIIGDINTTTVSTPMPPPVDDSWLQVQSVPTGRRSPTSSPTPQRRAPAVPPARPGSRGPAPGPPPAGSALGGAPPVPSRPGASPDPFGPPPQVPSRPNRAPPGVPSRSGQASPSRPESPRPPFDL
From the text: Recombinant dynamin I was used only for the data in Table 2. The dynamin antibodies were from: Dynamin I—in‐house YF2 antibodies, raised in rabbits against two different synthetic peptides: dynamin I 629‐647 ([…]) and dynamin I 765–778 ([…]), used at 1/2000 dilution, as previously described 53; Dynamin II—Santa Cruz (C‐18, sc‐6400, used at 1/1000) and Dynamin III—Santa Cruz (P‐13, sc‐69472, used at 1/500 dilution).
The Malachite Green colorimetric GTPase assay was as described 10. Dynamin I activity was measured in its SAI activity state or was stimulated by three different methods. As each stimulus activates dynamin to different extents, each assay required different dynamin concentrations. First, maximal dynamin activity was stimulated by sonicated PS liposomes 10. […] Finally, dynamin (500 nM) SAI activity was measured using high concentrations of dynamin, which promote its cooperative self‐assembly into rings (but not helices) 26. […] After the Vmax and Km values were determined, the data were transformed using the Lineweaver–Burke equation, 1/v = 1/Vmax + (Km/Vmax)(1/[S]).

Compound | IC50 [1] [µM] | CME IC50 (μM) [1] | also measured
O=C(N/N=C/c1cc(O)cc(O)c1)c1cc2ccccc2cc1O [8a, (E)-N'-(3,5-Dihydroxybenzylidene)-3-hydroxy-2-naphthohydrazide] | 179 ± 20 |  | 
O=C(N/N=C/c1ccc2nsnc2c1)c1cc2ccccc2cc1O [14a, (E)-N'-(benzo[c][1,2,5]thiadiazol-5-ylmethylene)-3-hydroxy-2-naphthohydrazide] |  | no effect; also recorded: Not active (n = 4) | 
CCCCCCCCNC(=O)C(C#N)=Cc1cn(CCN(C)C)c2ccccc12 [Dynole 34‐2, 2‐cyano‐3‐(1‐(2‐(dimethylamino)ethyl)‐1H‐indol‐3‐yl)‐N‐octylacrylamide] |  |  | IC50 [2]: 1.3 ± 0.3 µM
O=C(N/N=C/c1ccc2nonc2c1)c1cc2ccccc2cc1O [13a, (E)-N'-(benzo[c][1,2,5]oxadiazol-5-ylmethylene)-3-hydroxy-2-naphthohydrazide] |  | Not active (n = 3) | 
O=C(N/N=C/c1ccc(O)c(O)c1O)c1cc2ccccc2cc1O [3a, (E)-3-Hydroxy-N'-(2,3,4-trihydroxybenzylidene) -2-naphthohydrazide] | 9.8 ± 1.5 |  | 
O=C(N/N=C/c1ccc(O)cc1O)c1cc2ccccc2cc1O [1a, (E)-N'-(2,4-Dihydroxybenzylidene)-3-hydroxy-2-naphthohydrazide] |  | little or no effect; also recorded: Not active (n = 3) | detergent (Tween) sensitivity: fold potency change on removal of Tween [3]: < 10 fold
Cc1[nH]c2ccccc2c1/C=N/NC(=O)c1cc2ccccc2cc1O [11a, (E)-3-hydroxy-N'-((2-methyl-1H-indol-3-yl)methylene)-2-naphthohydrazide] | 63.4 ± 4.4 |  | 
O=C(N/N=C/c1cc(O)c(O)c(O)c1)c1cc2ccccc2cc1O [5a, (E)-3-Hydroxy-N'-(3,4,5-trihydroxybenzylidene) -2-naphthohydrazide] | 6.2 ± 2 |  | times more potent than dynasore in CME assay ([1]; same conditions, U2OS Tfn uptake): six times more potent
O=C(NN=Cc1cnc2ccccc2n1)c1cc2ccccc2cc1O [12a, 3-Hydroxynaphthalene-2-carboxylic acid quinoxaline-2-ylmethylenehydrazide] |  | Not active (n = 2) | 
CC(=O)Nc1ccc(/C=N/NC(=O)c2cc3ccccc3cc2O)cc1 [10a, (E)-N-(4-{[2-(3-hydroxy-2-naphthoyl)hydrazono]methyl}phenyl)acetamide] |  | Not active (n = 2) | 
